Consider 20 compounds from patent publication US20120115845A1, “THERAPEUTIC AGENTS” (priority 2007, published 2012).

Assay [1] has as its target T1, human GHS receptor (Homo sapiens, UniProt Q92847). Kind of assay: h bind IC50 (binding assay, Table 1). Conditions: human receptor; Table 1.
The target in assay [2] is T1, human GHS receptor. The experiment in a line: Ghrelin IP1 agonist assay (IP1 HTRF). Format: cell-based. The arrangement: expressed in transfected cells; host or cells: HEK293s. Conditions: for Emax: 2 h, agonist effect as % maximal effect of GHRP-6 (5 μM), read-out: h IP1 ag %; for EC50: HEK293s cells stably expressing human GHS receptor, 2 hours at 37° C., read-out: h IP1 ag EC50. A digest of the protocol:
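Cells: HEK293s stably expressing human GHS receptor, in stimulation buffer containing 0.02% fatty acid free BSA.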
For orientation: TR-FRET usually uses a lanthanide donor and a delayed reading to cut background.

T1 sequence (Q92847 whole entry): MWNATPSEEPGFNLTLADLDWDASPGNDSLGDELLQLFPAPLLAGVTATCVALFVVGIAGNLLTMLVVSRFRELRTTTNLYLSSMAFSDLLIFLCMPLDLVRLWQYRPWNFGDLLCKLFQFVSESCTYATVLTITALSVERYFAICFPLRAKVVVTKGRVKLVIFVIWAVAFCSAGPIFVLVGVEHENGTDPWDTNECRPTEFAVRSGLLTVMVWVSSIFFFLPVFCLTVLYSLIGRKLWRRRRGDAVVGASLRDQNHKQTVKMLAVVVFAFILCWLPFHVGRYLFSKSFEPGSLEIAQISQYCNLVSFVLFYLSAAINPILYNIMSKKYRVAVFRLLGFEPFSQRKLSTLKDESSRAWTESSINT

Regarding `CS(=O)(=O)c1ccc2nc(NC(=O)NC(=O)c3ccc([N+](=O)[O-])cc3Cl)sc2c1` [Example 180, 2-Chloro-N-[(6-methylsulfonylbenzothiazol-2-yl)carbamoyl]-4-nitro-benzamide], the IC50 (in general, the point on the concentration scale where inhibition reaches its midpoint) at human GHS receptor [1] came to 127 nM. Also, on human GHS receptor [2], the Emax amounted to 5.93% and the EC50 (usually the concentration giving half of the maximal effect) turned out to be 67.3 nM.

On to `CN1CCN(CCCS(=O)(=O)c2ccc3nc(NC(=O)NC(=O)c4cc(-c5cncs5)ccc4Cl)sc3c2)CC1` [Example 96, 2-Chloro-N-(6-(3-(4-methylpiperazin-1-yl)propylsulfonyl)benzothiazol-2-ylcarbamoyl)-5-(thiazol-5-yl)benzamide], for which, on human GHS receptor [1], the 50% inhibitory concentration (IC50) was 2.9 nM. Besides, on human GHS receptor [2], the Emax amounted to 13.1% and the EC50 was 432 nM.

Take `CC(C)N1CCC[C@H](COc2ccc(Cl)c(C(=O)NC(=O)Nc3nc4ccc(S(C)(=O)=O)cc4s3)c2)C1` [Example 228, (S)-2-chloro-5-((1-isopropylpiperidin-3-yl)methoxy)-N-(6-(methylsulfonyl)benzo[d]thiazol-2-ylcarbamoyl)benzamide]: the IC50 on human GHS receptor [1] came to 1240 nM. Further, at human GHS receptor [2], the Emax was determined as 9.89% and the half-maximal effective concentration (EC50) turned out to be 1370 nM.

In the case of `CCN1CCC(S(=O)(=O)c2ccc3nc(NC(=O)NC(=O)c4ccccc4Cl)sc3c2)CC1` [Example 173, 2-Chloro-N-[[6-[(1-ethyl-4-piperidyl)sulfonyl]benzothiazol-2-yl]carbamoyl]benzamide], at human GHS receptor [1], the IC50 came to 76.2 nM. On human GHS receptor [2], the Emax was found to be 52.2% and the 50% effective concentration (EC50) is 8.43 nM.

The compound `CS(=O)(=O)c1ccc2nc(NC(=O)NC(=O)c3cc(C4CCCC4)ccc3Cl)sc2c1` [Example 52, 2-Chloro-5-cyclopentyl-N-(6-(methylsulfonyl)benzothiazol-2-ylcarbamoyl)benzamide] had a half-inhibitory concentration (IC50) on human GHS receptor [1] of 3.7 nM. Moreover, on human GHS receptor [2], the Emax came to 0% and the concentration giving a half-maximal response (EC50) was ≥ 25000 nM.

On human GHS receptor [1], `O=C(NC(=O)c1ccccc1Cl)Nc1nc2ccc(S(=O)(=O)CCCN3CCCCC3)cc2s1` [Example 152, 2-Chloro-N-[[6-[3-(1-piperidyl)propylsulfonyl]benzothiazol-2-yl]carbamoyl]benzamide] yielded an IC50 of 19.1 nM. Further, at human GHS receptor [2], the Emax was 46.6% and the EC50 amounted to 23.9 nM.

In the case of `CS(=O)(=O)c1ccc2nc(NC(=O)NC(=O)c3cc(N4CC=CC4)ccc3Cl)sc2c1` [Example 50, 2-Chloro-5-(2,5-dihydro-pyrrol-1-yl)-N-(6-(methylsulfonyl)benzothiazol-2-ylcarbamoyl)benzamide], the IC50 on human GHS receptor [1] worked out at 1 nM. On human GHS receptor [2], the Emax was 0% and the concentration giving a half-maximal response (EC50) is ≥ 25000 nM.

As to `CS(=O)(=O)c1ccc2nc(NC(=O)NC(=O)c3ccccc3Br)sc2c1` [Example 103, 2-Bromo-N-[(6-methylsulfonylbenzothiazol-2-yl)carbamoyl]benzamide], the IC50 at human GHS receptor [1] amounted to 239 nM. For the same compound, at human GHS receptor [2], the Emax turned out to be 20.5% and the EC50 was determined as 454 nM.

At human GHS receptor [1], `O=C(NC(=O)c1ccccc1Cl)Nc1nc2ccc(S(=O)(=O)CCNC3CCCC3)cc2s1` [Example 17, 2-Chloro-N-[[6-[2-(cyclopentylamino)ethylsulfonyl]benzothiazol-2-yl]carbamoyl]benzamide] came in with a half-maximal inhibitory concentration (IC50) of 80.4 nM. On human GHS receptor [2], the Emax is 42.1% and the 50% effective concentration (EC50) turned out to be 6.03 nM.

As to `CN1CCN(CCCS(=O)(=O)c2ccc3nc(NC(=O)NC(=O)c4cc(OS(C)(=O)=O)ccc4Cl)sc3c2)CC1` [Example 92, 4-Chloro-3-(6-(3-(4-methylpiperazin-1-yl)propylsulfonyl)benzothiazol-2-ylcarbamoylcarbamoyl)phenyl methanesulfonate], at human GHS receptor [1], the IC50 was 10.1 nM. In addition, at human GHS receptor [2], the Emax is 4.99% and the EC50 is > 4870 nM.

Consider `CN1CCC(S(=O)(=O)c2ccc3nc(NC(=O)NC(=O)c4cc(-n5cccn5)c(Cl)cc4Cl)sc3c2)CC1` [Example 259, 2,4-dichloro-N-(6-(1-methylpiperidin-4-ylsulfonyl)benzo [d]thiazol-2-ylcarbamoyl)-5-(1H-pyrazol-1-yl)benzamide], for which, at human GHS receptor [1], the IC50 came to 5.03 nM. Moreover, on human GHS receptor [2], the Emax is 0.653% and the EC50 is ≥ 20000 nM.

At human GHS receptor [1], `Cc1ccn(-c2ccc(Cl)c(C(=O)NC(=O)Nc3nc4ccc(S(C)(=O)=O)cc4s3)c2)n1` [Example 56, 2-Chloro-5-(3-methyl-1H-pyrazol-1-yl)-N-(6-(methylsulfonyl)benzothiazol-2-ylcarbamoyl)benzamide] gave an IC50 of 10.1 nM. In addition, at human GHS receptor [2], the Emax stood at 10.8% and the EC50 was ≥ 25000 nM.

Regarding `O=C(NC(=O)c1ccccc1Cl)Nc1nc2ccc(S(=O)(=O)C[C@H]3CCCN3)cc2s1` [Example 165, 2-Chloro-N-[[6-[[(2R)-pyrrolidin-2-yl]methylsulfonyl]benzothiazol-2-yl]carbamoyl]benzamide], on human GHS receptor [1], the IC50 worked out at 127 nM. Besides, at human GHS receptor [2], the Emax was found to be 49.4% and the concentration for a half-maximal effect (EC50) was found to be 67.1 nM.

With `CS(=O)(=O)c1ccc2nc(NC(=O)NC(=O)c3ccccc3-n3cccc3)sc2c1` [Example 134, N-[(6-Methylsulfonylbenzothiazol-2-yl)carbamoyl]-2-pyrrol-1-yl-benzamide], the half-maximal inhibitory concentration (IC50) at human GHS receptor [1] was found to be 218 nM. In addition, at human GHS receptor [2], the Emax came to 63.9% and the EC50 was found to be 13.3 nM.

Regarding `CN(CCS(=O)(=O)c1ccc2nc(NC(=O)NC(=O)c3ccccc3Cl)sc2c1)CC1CCCO1` (stereo not drawn) [Example 26, 2-Chloro-N-[[6-[2-(methyl-(oxolan-2-ylmethyl)amino)ethylsulfonyl]benzothiazol-2-yl]carbamoyl]benzamide], the concentration for half-maximal inhibition (IC50) at human GHS receptor [1] is 428 nM. Further, on human GHS receptor [2], the Emax was 26.1% and the concentration giving a half-maximal response (EC50) worked out at 623 nM.

`CS(=O)(=O)c1ccc2nc(NC(=O)NC(=O)c3cc(-n4ccnn4)ccc3Cl)sc2c1` [Example 47, 2-Chloro-5-[1,2,3]triazol-1-yl-N-(6-(methylsulfonyl)benzothiazol-2-ylcarbamoyl)benzamide]: the IC50 at human GHS receptor [1] turned out to be 81.6 nM. On human GHS receptor [2], the Emax was 0% and the half-maximal effective concentration (EC50) is ≥ 25000 nM.

For `Cc1cc(Cl)c(C(=O)NC(=O)Nc2nc3ccc(S(=O)(=O)C4CCN(C)CC4)cc3s2)cc1-n1cccn1` [Example 260, 2-chloro-4-methyl-N-(6-(1-methylpiperidin-4-ylsulfonyl)benzo [d]thiazol-2-ylcarbamoyl)-5-(1H-pyrazol-1-yl)benzamide], the IC50 at human GHS receptor [1] was 5.78 nM. At human GHS receptor [2], the Emax came to 1.52% and the EC50 stood at 9230 nM.

`CC(C)N1CCC[C@@H]1CS(=O)(=O)c1ccc2nc(NC(=O)NC(=O)c3ccccc3Cl)sc2c1` [Example 168, 2-Chloro-N-[[6-[[(2R)-1-propan-2-ylpyrrolidin-2-yl]methylsulfonyl]benzothiazol-2-yl]carbamoyl]benzamide] showed a concentration for half-maximal inhibition (IC50) on human GHS receptor [1] of 20.6 nM. At human GHS receptor [2], the Emax amounted to 37% and the concentration for a half-maximal effect (EC50) came to 4.13 nM.

With `COCCN1CCN(CCCS(=O)(=O)c2ccc3nc(NC(=O)NC(=O)c4ccccc4Cl)sc3c2)CC1` [Example 200, 2-Chloro-N-[[6-[3-[4-(2-methoxyethyl)piperazin-1-yl]propylsulfonyl]benzothiazol-2-yl]carbamoyl]benzamide], the IC50 at human GHS receptor [1] was found to be 2.7 nM. Also, at human GHS receptor [2], the Emax was 41.4% and the EC50 came out at 4.53 nM.

Compound `O=C(NC(=O)c1ccccc1Cl)Nc1nc2ccc(S(=O)(=O)C3CCCNC3)cc2s1` (stereo not drawn) [Example 139, 2-Chloro-N-[[6-(3-piperidylsulfonyl)benzothiazol-2-yl]carbamoyl]benzamide] registered a half-maximal inhibitory concentration (IC50) on human GHS receptor [1] of 107 nM. Also, at human GHS receptor [2], the Emax was determined as 46.7% and the concentration for a half-maximal effect (EC50) amounted to 27.3 nM.
